Molecules are shown by their SMILES. “And” between values parts separate entries of the source, which are not always exact repeats. Identical values can stand only once.

In assay [1] the target is PEAK1 (Homo sapiens, UniProt Q9H792). To be noted: 1 μM; Run 1, Run 2.
Assay [2] deals with T1, TBK1 (Homo sapiens, UniProt Q9UHD2).
T1 sequence (Q9UHD2 1-729): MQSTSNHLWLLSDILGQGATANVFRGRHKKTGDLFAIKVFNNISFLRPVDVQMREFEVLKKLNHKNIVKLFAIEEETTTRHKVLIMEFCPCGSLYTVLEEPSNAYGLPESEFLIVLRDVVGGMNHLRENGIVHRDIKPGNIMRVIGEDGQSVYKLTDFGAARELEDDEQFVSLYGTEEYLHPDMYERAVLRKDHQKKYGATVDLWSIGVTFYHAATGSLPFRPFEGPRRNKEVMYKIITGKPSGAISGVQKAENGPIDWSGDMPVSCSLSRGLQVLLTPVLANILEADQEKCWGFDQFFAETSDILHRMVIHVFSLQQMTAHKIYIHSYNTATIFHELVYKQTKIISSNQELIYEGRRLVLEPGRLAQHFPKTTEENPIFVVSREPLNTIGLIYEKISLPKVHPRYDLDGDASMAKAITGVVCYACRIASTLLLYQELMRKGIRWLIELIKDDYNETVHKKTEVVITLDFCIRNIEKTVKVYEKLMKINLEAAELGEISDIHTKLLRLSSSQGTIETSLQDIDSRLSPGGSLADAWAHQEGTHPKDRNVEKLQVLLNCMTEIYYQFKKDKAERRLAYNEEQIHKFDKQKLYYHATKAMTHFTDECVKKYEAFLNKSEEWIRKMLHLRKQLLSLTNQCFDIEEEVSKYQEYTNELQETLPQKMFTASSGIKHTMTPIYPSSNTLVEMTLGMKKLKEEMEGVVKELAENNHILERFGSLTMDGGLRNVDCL
Description: biochemical. The following applies: read-out: % enzyme activity, 1 μM; Run 1, Run 2.

Assay [3] addresses IGF1R (Homo sapiens, UniProt P08069). The following applies: 1 μM; Run 1, Run 2.
In assay [4] the target is T2, GRK2 (Homo sapiens, UniProt P25098).
T2 sequence (P25098 1-689): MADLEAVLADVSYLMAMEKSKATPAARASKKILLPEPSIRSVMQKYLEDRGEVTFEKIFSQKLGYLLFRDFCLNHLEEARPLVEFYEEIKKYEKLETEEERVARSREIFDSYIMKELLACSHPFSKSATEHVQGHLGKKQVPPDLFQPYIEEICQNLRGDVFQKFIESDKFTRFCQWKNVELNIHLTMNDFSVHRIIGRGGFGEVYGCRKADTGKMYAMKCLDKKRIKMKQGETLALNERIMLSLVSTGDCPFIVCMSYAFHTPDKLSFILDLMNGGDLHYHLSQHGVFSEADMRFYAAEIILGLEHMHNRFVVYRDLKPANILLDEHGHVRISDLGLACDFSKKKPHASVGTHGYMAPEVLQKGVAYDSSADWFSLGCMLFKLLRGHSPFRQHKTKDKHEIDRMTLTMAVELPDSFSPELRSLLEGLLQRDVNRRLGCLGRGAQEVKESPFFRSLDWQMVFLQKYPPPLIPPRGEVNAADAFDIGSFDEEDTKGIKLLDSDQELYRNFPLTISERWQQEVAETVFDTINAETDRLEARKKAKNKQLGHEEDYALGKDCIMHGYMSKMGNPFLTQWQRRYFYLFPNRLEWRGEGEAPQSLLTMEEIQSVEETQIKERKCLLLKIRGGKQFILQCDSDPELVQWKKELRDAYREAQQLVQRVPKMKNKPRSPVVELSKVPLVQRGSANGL
The following applies: 1 μM; Run 1, Run 2.

The subject of assay [5] is NLK.
For assay [6], the target named is T3, GCK/MAP4K2 (Homo sapiens, UniProt Q12851).
T3 sequence (Q12851 1-820): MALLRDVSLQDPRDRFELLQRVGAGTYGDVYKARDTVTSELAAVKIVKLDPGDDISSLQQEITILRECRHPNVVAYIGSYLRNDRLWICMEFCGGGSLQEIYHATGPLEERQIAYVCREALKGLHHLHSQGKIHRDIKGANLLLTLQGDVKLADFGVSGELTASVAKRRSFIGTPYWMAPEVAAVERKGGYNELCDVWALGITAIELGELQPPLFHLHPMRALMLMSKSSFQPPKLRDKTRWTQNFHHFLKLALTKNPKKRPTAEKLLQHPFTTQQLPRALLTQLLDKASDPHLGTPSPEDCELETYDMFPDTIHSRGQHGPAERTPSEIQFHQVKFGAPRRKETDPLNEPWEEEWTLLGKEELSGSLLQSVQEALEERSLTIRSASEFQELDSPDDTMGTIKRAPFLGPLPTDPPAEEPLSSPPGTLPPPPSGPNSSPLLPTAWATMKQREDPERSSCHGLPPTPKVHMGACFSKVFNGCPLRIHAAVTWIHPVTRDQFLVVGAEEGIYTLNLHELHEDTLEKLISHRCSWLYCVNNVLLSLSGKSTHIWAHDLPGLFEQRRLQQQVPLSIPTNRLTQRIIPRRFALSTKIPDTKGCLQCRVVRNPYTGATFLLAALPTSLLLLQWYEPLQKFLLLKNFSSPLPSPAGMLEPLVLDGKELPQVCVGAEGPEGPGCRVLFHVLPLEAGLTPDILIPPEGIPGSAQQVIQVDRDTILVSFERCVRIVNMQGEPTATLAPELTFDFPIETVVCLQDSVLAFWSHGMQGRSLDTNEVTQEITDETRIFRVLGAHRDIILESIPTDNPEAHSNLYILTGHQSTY
The following applies: 1 μM; Run 1, Run 2.

Assay [7] concerns the target LYN (Homo sapiens, UniProt P07948). In words: biochemical. To be noted: read-out: % enzyme activity, 1 μM; Run 1, Run 2.
The target in assay [8] is p70S6K/RPS6KB1 (Homo sapiens, UniProt P23443). To be noted: 1 μM; Run 1, Run 2.
Chain of p70S6K/RPS6KB1 (P23443 whole entry): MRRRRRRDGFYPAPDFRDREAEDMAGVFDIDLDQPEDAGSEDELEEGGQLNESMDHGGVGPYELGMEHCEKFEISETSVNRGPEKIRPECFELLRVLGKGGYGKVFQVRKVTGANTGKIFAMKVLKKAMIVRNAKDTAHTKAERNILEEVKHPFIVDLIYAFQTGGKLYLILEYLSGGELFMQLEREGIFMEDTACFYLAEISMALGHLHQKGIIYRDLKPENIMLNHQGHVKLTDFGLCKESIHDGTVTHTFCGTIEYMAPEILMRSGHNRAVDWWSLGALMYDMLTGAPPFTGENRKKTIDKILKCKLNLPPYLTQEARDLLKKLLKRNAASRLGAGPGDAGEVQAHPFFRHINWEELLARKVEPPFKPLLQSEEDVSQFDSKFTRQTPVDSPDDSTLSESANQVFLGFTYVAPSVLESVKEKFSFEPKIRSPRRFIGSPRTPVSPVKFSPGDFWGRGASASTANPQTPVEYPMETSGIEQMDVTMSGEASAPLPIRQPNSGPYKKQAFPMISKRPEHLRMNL
The target of assay [9] is SIK1 (Homo sapiens, UniProt P57059). To be noted: 1 μM; Run 1, Run 2.
The target in assay [10] is PLK3 (Homo sapiens, UniProt Q9H4B4). To be noted: 1 μM; Run 1, Run 2.
Chain of PLK3 (Q9H4B4 whole entry): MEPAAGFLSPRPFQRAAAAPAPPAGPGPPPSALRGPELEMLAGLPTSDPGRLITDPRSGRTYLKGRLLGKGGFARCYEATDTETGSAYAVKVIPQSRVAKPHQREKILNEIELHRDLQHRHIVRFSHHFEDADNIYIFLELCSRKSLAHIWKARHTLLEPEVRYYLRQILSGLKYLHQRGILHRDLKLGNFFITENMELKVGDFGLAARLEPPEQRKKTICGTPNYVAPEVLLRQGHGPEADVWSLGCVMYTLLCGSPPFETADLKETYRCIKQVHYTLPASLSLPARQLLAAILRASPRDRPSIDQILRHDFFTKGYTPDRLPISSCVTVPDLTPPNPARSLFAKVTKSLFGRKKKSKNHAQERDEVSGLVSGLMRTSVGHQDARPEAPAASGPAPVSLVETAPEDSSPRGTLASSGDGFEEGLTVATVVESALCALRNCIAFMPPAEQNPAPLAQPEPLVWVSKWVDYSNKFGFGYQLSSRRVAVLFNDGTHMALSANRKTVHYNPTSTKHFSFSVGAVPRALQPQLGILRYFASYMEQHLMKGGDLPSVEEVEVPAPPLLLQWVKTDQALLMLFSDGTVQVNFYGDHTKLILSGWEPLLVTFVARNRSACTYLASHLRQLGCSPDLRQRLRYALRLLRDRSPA

Chain of LYN (P07948 whole entry): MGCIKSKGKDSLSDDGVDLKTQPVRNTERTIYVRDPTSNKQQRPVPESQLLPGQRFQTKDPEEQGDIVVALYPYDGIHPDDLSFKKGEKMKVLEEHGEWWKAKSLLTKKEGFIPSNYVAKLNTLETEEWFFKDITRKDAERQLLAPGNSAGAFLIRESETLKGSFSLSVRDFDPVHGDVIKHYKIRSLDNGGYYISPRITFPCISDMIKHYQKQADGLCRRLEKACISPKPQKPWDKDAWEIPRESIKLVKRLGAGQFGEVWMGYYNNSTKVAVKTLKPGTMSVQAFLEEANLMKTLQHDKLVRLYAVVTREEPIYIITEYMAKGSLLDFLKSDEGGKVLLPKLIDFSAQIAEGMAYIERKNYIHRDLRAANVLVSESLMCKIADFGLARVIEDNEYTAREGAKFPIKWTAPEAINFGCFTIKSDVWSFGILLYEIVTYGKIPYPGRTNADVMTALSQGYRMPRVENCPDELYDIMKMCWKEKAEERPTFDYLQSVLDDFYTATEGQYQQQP
Chain of IGF1R (P08069 31-1367): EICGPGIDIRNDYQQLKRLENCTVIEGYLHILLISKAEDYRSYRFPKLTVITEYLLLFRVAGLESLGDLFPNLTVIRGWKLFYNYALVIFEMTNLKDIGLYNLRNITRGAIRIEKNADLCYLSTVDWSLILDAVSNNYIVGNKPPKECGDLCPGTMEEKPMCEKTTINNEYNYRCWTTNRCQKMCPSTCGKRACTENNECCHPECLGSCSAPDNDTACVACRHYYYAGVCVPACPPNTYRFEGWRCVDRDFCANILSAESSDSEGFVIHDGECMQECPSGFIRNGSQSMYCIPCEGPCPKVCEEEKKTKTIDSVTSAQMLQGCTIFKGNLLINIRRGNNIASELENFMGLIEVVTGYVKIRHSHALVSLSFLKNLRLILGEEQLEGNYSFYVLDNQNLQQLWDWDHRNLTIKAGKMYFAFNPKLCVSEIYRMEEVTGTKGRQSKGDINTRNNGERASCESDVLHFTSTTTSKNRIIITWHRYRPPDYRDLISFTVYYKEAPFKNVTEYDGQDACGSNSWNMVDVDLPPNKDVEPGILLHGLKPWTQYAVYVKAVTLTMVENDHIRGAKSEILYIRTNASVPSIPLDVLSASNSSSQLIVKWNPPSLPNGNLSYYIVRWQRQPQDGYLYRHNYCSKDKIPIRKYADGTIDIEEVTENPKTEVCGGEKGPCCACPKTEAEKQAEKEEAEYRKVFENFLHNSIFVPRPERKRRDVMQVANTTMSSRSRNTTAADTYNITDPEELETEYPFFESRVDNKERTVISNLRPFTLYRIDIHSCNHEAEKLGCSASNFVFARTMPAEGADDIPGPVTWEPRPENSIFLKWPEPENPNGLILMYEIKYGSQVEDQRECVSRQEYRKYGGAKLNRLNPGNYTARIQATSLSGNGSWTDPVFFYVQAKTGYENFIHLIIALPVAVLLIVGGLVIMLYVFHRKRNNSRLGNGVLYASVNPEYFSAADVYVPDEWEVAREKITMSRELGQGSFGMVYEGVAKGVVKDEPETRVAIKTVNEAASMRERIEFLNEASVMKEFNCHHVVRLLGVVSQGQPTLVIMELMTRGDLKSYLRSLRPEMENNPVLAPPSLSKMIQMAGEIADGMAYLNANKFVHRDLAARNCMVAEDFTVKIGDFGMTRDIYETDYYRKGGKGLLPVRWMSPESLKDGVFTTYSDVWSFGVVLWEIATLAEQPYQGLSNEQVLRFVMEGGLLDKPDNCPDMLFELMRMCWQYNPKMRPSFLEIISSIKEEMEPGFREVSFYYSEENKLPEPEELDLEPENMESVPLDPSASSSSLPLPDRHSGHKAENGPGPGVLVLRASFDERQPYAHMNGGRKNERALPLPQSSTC
Chain of PEAK1 (Q9H792 whole entry): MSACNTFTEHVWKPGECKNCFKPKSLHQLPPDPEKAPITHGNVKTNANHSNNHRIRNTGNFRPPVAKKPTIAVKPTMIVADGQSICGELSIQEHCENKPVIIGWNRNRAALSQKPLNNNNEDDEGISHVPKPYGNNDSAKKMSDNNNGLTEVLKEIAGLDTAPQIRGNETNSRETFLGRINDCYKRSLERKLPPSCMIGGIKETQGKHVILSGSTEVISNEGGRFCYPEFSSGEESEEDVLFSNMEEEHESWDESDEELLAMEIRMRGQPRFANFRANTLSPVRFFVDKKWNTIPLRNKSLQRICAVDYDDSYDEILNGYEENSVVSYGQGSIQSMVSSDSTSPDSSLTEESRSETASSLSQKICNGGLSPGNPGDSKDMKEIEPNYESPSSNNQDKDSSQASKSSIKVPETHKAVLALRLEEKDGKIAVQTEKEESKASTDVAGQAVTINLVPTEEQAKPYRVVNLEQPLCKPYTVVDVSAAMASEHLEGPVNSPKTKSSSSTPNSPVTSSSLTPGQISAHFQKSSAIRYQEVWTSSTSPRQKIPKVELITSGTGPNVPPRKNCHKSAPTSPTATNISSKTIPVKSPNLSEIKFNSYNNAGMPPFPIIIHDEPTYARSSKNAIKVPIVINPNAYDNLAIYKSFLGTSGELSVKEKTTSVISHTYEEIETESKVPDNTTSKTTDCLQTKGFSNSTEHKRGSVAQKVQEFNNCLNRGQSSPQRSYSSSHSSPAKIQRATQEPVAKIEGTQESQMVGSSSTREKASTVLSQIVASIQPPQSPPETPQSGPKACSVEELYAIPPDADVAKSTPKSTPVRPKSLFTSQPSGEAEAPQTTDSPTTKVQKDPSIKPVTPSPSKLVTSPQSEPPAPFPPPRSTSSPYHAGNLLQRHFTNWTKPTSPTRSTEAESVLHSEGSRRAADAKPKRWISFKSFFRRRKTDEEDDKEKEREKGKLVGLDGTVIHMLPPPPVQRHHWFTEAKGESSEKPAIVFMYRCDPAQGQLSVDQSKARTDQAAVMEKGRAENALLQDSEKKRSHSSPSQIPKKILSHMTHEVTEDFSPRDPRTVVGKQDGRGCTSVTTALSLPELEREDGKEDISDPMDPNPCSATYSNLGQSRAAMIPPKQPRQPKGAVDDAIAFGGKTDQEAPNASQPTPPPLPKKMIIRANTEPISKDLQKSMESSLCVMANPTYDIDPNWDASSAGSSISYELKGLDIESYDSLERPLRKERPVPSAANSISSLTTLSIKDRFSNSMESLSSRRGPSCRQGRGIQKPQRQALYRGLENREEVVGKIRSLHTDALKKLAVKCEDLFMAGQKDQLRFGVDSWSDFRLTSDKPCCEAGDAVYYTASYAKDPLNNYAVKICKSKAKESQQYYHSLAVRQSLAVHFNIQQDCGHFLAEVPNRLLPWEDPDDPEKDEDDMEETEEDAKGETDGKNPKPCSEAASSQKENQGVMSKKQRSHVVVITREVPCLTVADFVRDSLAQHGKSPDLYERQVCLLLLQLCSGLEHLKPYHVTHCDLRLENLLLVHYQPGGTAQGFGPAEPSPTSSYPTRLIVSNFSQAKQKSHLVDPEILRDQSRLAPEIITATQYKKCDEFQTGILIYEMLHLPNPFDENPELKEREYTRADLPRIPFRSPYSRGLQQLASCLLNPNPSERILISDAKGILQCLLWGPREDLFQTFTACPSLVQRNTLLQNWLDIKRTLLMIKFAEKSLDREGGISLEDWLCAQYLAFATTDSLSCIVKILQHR

As to `COc1cc(-c2cncc(-c3ccc(N4CCN(C)CC4)cc3)c2C)cc(F)c1C(N)=O` [Compound 26a, 2-Fluoro-6-methoxy-4-(4-methyl-5-(4-(4-methylpiperazin-1-yl)phenyl)pyridin-3-yl)benzamide], the “% enzyme activity” value in assay [1] worked out at 97.59%; in assay [3], 98.31%; in assay [4], 103.58%; in assay [6], 59.95%; in [8] it was 96.69%; in assay [9], 82.71%. Also, the “% enzyme activity” value in assay [10] is 93.70%. For the same compound, the values for the remaining activity at 1 µM in [2] and in [7] were 93.6% and 79.9%, respectively. Besides, the % enzyme activity at 1 μM in assay [5] was 22% and 20.8%.
Consider `COc1cc(-c2cncc(-c3ccc(N4C[C@@H](C)N(C)[C@@H](C)C4)cc3)c2C)cc(F)c1C(N)=O` [Compound 26c, 2-Fluoro-6-methoxy-4-(4-methyl-5-(4-((3R,5S)-3,4,5-trimethylpiperazin-1-yl)phenyl)pyridin-3-yl)benzamide], for which the “% enzyme activity” value came to 95.56% in [1]; 94.80% in [3]; 99.17% in assay [4]; 74.91% in assay [6]; 99.76% in assay [8]; 91.60% in assay [9]. Besides, in [10], the “% enzyme activity” value came out at 94.47%. The remaining activity at 1 µM worked out at 87.2% in assay [2] and 91% in [7]. Also, the % enzyme activity at 1 μM in [5] is 50.4% and 47.7%.

Source of the values: paper PMC8213057, “Targeting ALK2: An Open Science Approach to Developing Therapeutics for the Treatment of Diffuse Intrinsic Pontine Glioma” (Journal of Medicinal Chemistry, 2020).
